Key:
[1] = biological target: T1, Tyrosine-protein phosphatase non-receptor type 2 (Homo sapiens, UniProt P17706); assay: Inhibition of TCPTP by pNPP assay
T1 sequence (P17706 whole entry): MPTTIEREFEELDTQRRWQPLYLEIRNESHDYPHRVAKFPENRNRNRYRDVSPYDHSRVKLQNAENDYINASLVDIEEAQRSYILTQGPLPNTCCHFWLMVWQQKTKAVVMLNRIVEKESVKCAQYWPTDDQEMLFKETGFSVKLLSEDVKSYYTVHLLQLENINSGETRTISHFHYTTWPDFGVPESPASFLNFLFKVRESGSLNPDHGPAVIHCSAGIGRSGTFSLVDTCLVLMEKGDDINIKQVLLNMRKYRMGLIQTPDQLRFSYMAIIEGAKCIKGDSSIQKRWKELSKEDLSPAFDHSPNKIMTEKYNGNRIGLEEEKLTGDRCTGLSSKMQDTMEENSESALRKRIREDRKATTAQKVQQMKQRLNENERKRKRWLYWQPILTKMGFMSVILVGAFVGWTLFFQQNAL

[2] = biological target: T2, Tyrosine-protein phosphatase non-receptor type 1 (Homo sapiens, UniProt P18031); assay: Inhibition of PTP1B by pNPP assay
T2 sequence (P18031 whole entry): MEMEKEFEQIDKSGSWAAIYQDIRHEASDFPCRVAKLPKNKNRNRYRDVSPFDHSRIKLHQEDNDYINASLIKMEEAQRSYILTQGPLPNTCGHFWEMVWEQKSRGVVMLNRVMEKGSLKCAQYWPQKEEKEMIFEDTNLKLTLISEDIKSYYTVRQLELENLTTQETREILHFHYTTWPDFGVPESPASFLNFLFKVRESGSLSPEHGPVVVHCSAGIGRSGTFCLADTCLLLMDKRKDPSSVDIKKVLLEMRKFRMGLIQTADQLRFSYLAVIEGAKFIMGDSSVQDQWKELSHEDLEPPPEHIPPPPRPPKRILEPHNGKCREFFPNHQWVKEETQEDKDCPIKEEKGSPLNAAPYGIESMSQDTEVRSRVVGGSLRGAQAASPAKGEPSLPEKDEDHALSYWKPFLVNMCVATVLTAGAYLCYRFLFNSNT

Row | IC50 [1] [nM] | IC50 [2] [nM] | SMILES
1 | 650 | 570 | CC1(C)CC[C@]2(CCCCC(=O)NC(Cc3ccc(F)cc3)C(=O)O)CC[C@]3(C)C(=CC[C@@H]4[C@@]5(C)CC[C@H](O)C(C)(C)[C@@H]5CC[C@]43C)[C@@H]2C1 (stereo partly specified)
2 | 660 | 650 | Cc1ccc(CC(NC(=O)CCCC[C@]23CCC(C)(C)C[C@H]2C2=CC[C@@H]4[C@@]5(C)CC[C@H](O)C(C)(C)[C@@H]5CC[C@@]4(C)[C@]2(C)CC3)C(=O)O)cc1 (stereo partly specified)
3 | – | 8610 | CC1(C)CC[C@]2(C(=O)OCc3ccccc3)CC[C@]3(C)C(=CC[C@@H]4[C@@]5(C)CC[C@H](O)C(C)(C)[C@@H]5CC[C@]43C)[C@@H]2C1
4 | > 20000 | > 20000 | C[C@H]1[C@H](C)CC[C@]2(C)CC[C@]3(C)C(=CC[C@@H]4[C@@]5(C)CC[C@@H](O)[C@](C)(C(=O)O)[C@@H]5CC[C@]43C)[C@H]12 [BOSWELLIC ACID]
5 | 450 | 530 | COc1ccccc1CC(NC(=O)CCCC[C@]12CCC(C)(C)C[C@H]1C1=CC[C@@H]3[C@@]4(C)CC[C@H](O)C(C)(C)[C@@H]4CC[C@@]3(C)[C@]1(C)CC2)C(=O)O (stereo partly specified)
6 | 3660 | 2890 | CCOC(=O)C(=O)O[C@H]1CC[C@]2(C)[C@H]3CC=C4[C@@H]5CC(C)(C)CC[C@]5(C(=O)O)CC[C@@]4(C)[C@]3(C)CC[C@H]2C1(C)C
7 | – | 4440 | COC(=O)[C@]12CCC(C)(C)C[C@H]1C1=CC[C@@H]3[C@@]4(C)CC[C@H](O)C(C)(C)[C@@H]4CC[C@@]3(C)[C@]1(C)CC2 [METHYL OLEANOLATE]
8 | 5360 | 5970 | CC1(C)CC[C@]2(C(=O)O)CC[C@]3(C)C(=CC[C@@H]4[C@@]5(C)CC[C@H](OC(=O)CCC(=O)O)C(C)(C)[C@@H]5CC[C@]43C)[C@@H]2C1 [OLEANOLIC ACID 3-O-SUCCINATE]
9 | 490 | 620 | CC1(C)CC[C@]2(C(=O)O)CC[C@]3(C)C(=CC[C@@H]4[C@@]5(C)CC[C@H](OCc6cccc(C(=O)O)c6)C(C)(C)[C@@H]5CC[C@]43C)[C@@H]2C1
10 | > 20000 | > 20000 | C[C@H]1[C@H](C)CC[C@]2(C(=O)O)CC[C@]3(C)C(=CC[C@@H]4[C@@]5(C)C[C@@H](O)[C@H](O)[C@@](C)(CO)[C@@H]5CC[C@]43C)[C@H]12 [ASIATIC ACID]
11 | > 20000 | – | CC1(C)[C@@H](O)CC[C@]2(C)[C@H]3C(=O)C=C4[C@@H]5C[C@@](C)(C(=O)O)CC[C@]5(C)CC[C@@]4(C)[C@]3(C)CC[C@@H]12 [ENOXOLONE]
12 | 550 | 600 | COc1ccc(CC(NC(=O)CCCC[C@]23CCC(C)(C)C[C@H]2C2=CC[C@@H]4[C@@]5(C)CC[C@H](O)C(C)(C)[C@@H]5CC[C@@]4(C)[C@]2(C)CC3)C(=O)O)cc1 (stereo partly specified)
13 | – | 16400 | CC1(C)CC[C@]2(C(=O)N[C@@H](CCC(=O)O)C(=O)O)CC[C@]3(C)C(=CC[C@@H]4[C@@]5(C)CC[C@H](O)C(C)(C)[C@@H]5CC[C@]43C)[C@@H]2C1
14 | – | 3190 | CC1(C)CC[C@]2(C(=O)Nc3ccc(C(=O)O)cc3)CC[C@]3(C)C(=CC[C@@H]4[C@@]5(C)CC[C@H](O)C(C)(C)[C@@H]5CC[C@]43C)[C@@H]2C1
15 | > 20000 | 12400 | C[C@H]1[C@H](C)CC[C@]2(C(=O)O)CC[C@]3(C)C(=CC[C@@H]4[C@@]5(C)C[C@@H](O)[C@H](O)[C@@](C)(CO)[C@@H]5[C@H](O)C[C@]43C)[C@H]12 [MADECASSIC ACID]
16 | – | 15400 | CC1(C)CC[C@]2(C(=O)NCC(=O)O)CC[C@]3(C)C(=CC[C@@H]4[C@@]5(C)CC[C@H](O)C(C)(C)[C@@H]5CC[C@]43C)[C@@H]2C1
17 | 4310 | 4620 | CC1(C)CC[C@]2(CCCCC(=O)N[C@@H](Cc3cnc[nH]3)C(=O)O)CC[C@]3(C)C(=CC[C@@H]4[C@@]5(C)CC[C@H](O)C(C)(C)[C@@H]5CC[C@]43C)[C@@H]2C1
18 | 590 | 590 | CC1(C)CC[C@]2(CCCCC(=O)N[C@@H](Cc3c[nH]c4ccccc34)C(=O)O)CC[C@]3(C)C(=CC[C@@H]4[C@@]5(C)CC[C@H](O)C(C)(C)[C@@H]5CC[C@]43C)[C@@H]2C1
19 | 750 | 550 | CSCC[C@H](NC(=O)CCCC[C@]12CCC(C)(C)C[C@H]1C1=CC[C@@H]3[C@@]4(C)CC[C@H](O)C(C)(C)[C@@H]4CC[C@@]3(C)[C@]1(C)CC2)C(=O)O
20 | 700 | 820 | COc1ccc(CC(NC(=O)CCCC[C@]23CCC(C)(C)C[C@H]2C2=CC[C@@H]4[C@@]5(C)CC[C@H](O)C(C)(C)[C@@H]5CC[C@@]4(C)[C@]2(C)CC3)C(=O)O)cc1OC (stereo partly specified)

Row | IC50 [1] [nM] | IC50 [2] [nM] | SMILES
21 | 680 | 740 | CC1(C)CC[C@]2(CCCCC(=O)N[C@H](Cc3ccccc3)C(=O)O)CC[C@]3(C)C(=CC[C@@H]4[C@@]5(C)CC[C@H](O)C(C)(C)[C@@H]5CC[C@]43C)[C@@H]2C1
22 | 550 | 560 | CC1(C)CC[C@]2(CCCCC(=O)NC(Cc3ccccc3Cl)C(=O)O)CC[C@]3(C)C(=CC[C@@H]4[C@@]5(C)CC[C@H](O)C(C)(C)[C@@H]5CC[C@]43C)[C@@H]2C1 (stereo partly specified)
23 | 630 | 720 | CC1(C)CC[C@]2(CCCCCCCCCCC(=O)O)CC[C@]3(C)C(=CC[C@@H]4[C@@]5(C)CC[C@H](O)C(C)(C)[C@@H]5CC[C@]43C)[C@@H]2C1
24 | 2750 | 2670 | CC1(C)CC[C@]2(C(=O)O)CC[C@]3(C)C(=CC[C@@H]4[C@@]5(C)CC[C@H](OCc6ccccc6)C(C)(C)[C@@H]5CC[C@]43C)[C@@H]2C1
25 | 3000 | 2610 | CC1(C)CC[C@]2(C(=O)O)CC[C@]3(C)C(=CC[C@@H]4[C@@]5(C)CCCC(C)(C)[C@@H]5CC[C@]43C)[C@@H]2C1
26 | 520 | 510 | CC1(C)CC[C@]2(CCCCC(=O)NC(Cc3cccc(Cl)c3)C(=O)O)CC[C@]3(C)C(=CC[C@@H]4[C@@]5(C)CC[C@H](O)C(C)(C)[C@@H]5CC[C@]43C)[C@@H]2C1 (stereo partly specified)
27 | 480 | 610 | CC1(C)CC[C@]2(CCCCC(=O)NC(Cc3ccc(Cl)cc3)C(=O)O)CC[C@]3(C)C(=CC[C@@H]4[C@@]5(C)CC[C@H](O)C(C)(C)[C@@H]5CC[C@]43C)[C@@H]2C1 (stereo partly specified)
28 | 5630 | 5320 | CC1(C)CC[C@]2(C(=O)O)CC[C@]3(C)C(=CC[C@@H]4[C@@]5(C)CCC(=O)C(C)(C)[C@@H]5CC[C@]43C)[C@@H]2C1 [OLEANONIC ACID]
29 | – | 8100 | CC1(C)CC[C@]2(C(=O)NCc3ccccc3)CC[C@]3(C)C(=CC[C@@H]4[C@@]5(C)CC[C@H](O)C(C)(C)[C@@H]5CC[C@]43C)[C@@H]2C1
30 | 9450 | 8040 | C[C@H]1[C@H](C)CC[C@]2(C)CC[C@]3(C)C(=CC(=O)[C@@H]4[C@@]5(C)CC[C@@H](O)[C@](C)(C(=O)O)[C@@H]5CC[C@]43C)[C@H]12 [11-KETO BOSWELLIC ACID]
31 | 500 | 550 | Cc1ccccc1CC(NC(=O)CCCC[C@]12CCC(C)(C)C[C@H]1C1=CC[C@@H]3[C@@]4(C)CC[C@H](O)C(C)(C)[C@@H]4CC[C@@]3(C)[C@]1(C)CC2)C(=O)O (stereo partly specified)
32 | 520 | 520 | COc1cccc(CC(NC(=O)CCCC[C@]23CCC(C)(C)C[C@H]2C2=CC[C@@H]4[C@@]5(C)CC[C@H](O)C(C)(C)[C@@H]5CC[C@@]4(C)[C@]2(C)CC3)C(=O)O)c1 (stereo partly specified)
33 | 5000 | 4580 | CC1(C)CC[C@]2(C(=O)O)CC[C@]3(C)C(=CC[C@@H]4[C@@]5(C)CC[C@H](OC(=O)c6ccccc6C(=O)O)C(C)(C)[C@@H]5CC[C@]43C)[C@@H]2C1
34 | 2530 | 2850 | C=C1CC[C@]2(C)[C@H]3CC=C4[C@@H]5CC(C)(C)CC[C@]5(C(=O)O)CC[C@@]4(C)[C@]3(C)CC[C@H]2C1(C)C
35 | 5350 | 5730 | O=C(O)C(=O)c1ccc(OCc2ccc(COc3ccc(C(=O)C(=O)O)cc3)cc2)cc1
36 | 4550 | 2860 | CC1(C)CC[C@]2(C(=O)O)CC[C@]3(C)C(=CC[C@@H]4[C@@]5(C)CC[C@H](OC(=O)C(=O)O)C(C)(C)[C@@H]5CC[C@]43C)[C@@H]2C1
37 | – | 9200 | CNC(=O)[C@]12CCC(C)(C)C[C@H]1C1=CC[C@@H]3[C@@]4(C)CC[C@H](O)C(C)(C)[C@@H]4CC[C@@]3(C)[C@]1(C)CC2
38 | 850 | 880 | CC1(C)CC[C@]2(CCCCCCC(=O)O)CC[C@]3(C)C(=CC[C@@H]4[C@@]5(C)CC[C@H](O)C(C)(C)[C@@H]5CC[C@]43C)[C@@H]2C1
39 | 750 | 660 | COc1cccc(CC(NC(=O)CCCC[C@]23CCC(C)(C)C[C@H]2C2=CC[C@@H]4[C@@]5(C)CC[C@H](O)C(C)(C)[C@@H]5CC[C@@]4(C)[C@]2(C)CC3)C(=O)O)c1OC (stereo partly specified)
40 | – | 4760 | CC1(C)CC[C@]2(C(N)=O)CC[C@]3(C)C(=CC[C@@H]4[C@@]5(C)CC[C@H](O)C(C)(C)[C@@H]5CC[C@]43C)[C@@H]2C1

From ChEMBL document CHEMBL1151785, “Oleanolic acid and its derivatives: new inhibitor of protein tyrosine phosphatase 1B with cellular activities” (Bioorg Med Chem, 2008)
